The assay deals with HSP90 (Homo sapiens, UniProt P07900). The experiment in a line: HSP90 inhibition (HSP90 IC50). The class given is biochemical.
The term IC50 denotes the concentration that inhibits the measured activity by half. Higher therefore signals a need for much substance. In the case of `CCOC(=O)N1CCC(NC(=O)c2ccc(N3[C@@H]4CC[C@H]3C[C@@H](NC(=O)c3cccc(OC)c3C)C4)nc2)CC1` [ethyl 4-[({6-[3-endo-({[2-methyl-3-(methyloxy)phenyl]carbonyl}amino)-8-azabicyclo[3.2.1]oct-8-yl]pyridin-3-yl}carbonyl)amino]piperidine-1-carboxylate], the IC50 is below 500 nM. With `COc1cccc(C(=O)NC2CC3CCC(C2)N3c2ccc(C(=O)N[C@@H]3CC4CCC3C4)cn2)c1C` (stereo partly drawn) [N-[(1R,2R,4S)-bicyclo[2.2.1]hept-2-yl]-6-[3-endo-({[2-methyl-3-(methyloxy)phenyl]carbonyl}amino)-8-azabicyclo[3.2.1]oct-8-yl]pyridine-3-carboxamide] the figure was 1000 to 2000 nM; with `NC(=O)c1ccc(C(=O)N[C@H]2C[C@H]3CC[C@@H](C2)N3c2ccc(C(=O)NCc3cccnc3)cn2)cc1` [N-[8-(5-{[(pyridin-3-ylmethyl)amino]carbonyl}pyridin-2-yl)-8-azabicyclo[3.2.1]oct-3-endo-yl]benzene-1,4-dicarboxamide], below 500 nM; with `C[C@H](NC(=O)c1ccc(N2C3CCC2CC(NC(=O)c2ccc(C(N)=O)c(NCCS(C)(=O)=O)c2)C3)nc1)c1ccc(N2CCN(C)CC2)cc1` (stereo partly drawn) [N4-(8-{5-[({(1S)-1-[4-(4-methylpiperazin-1-yl)phenyl]ethyl}amino)carbonyl]pyridin-2-yl}-8-azabicyclo[3.2.1]oct-3-endo-yl)-2-{[2-(methylsulfonyl)ethyl]amino}benzene-1,4-dicarboxamide], below 500 nM. With `COc1cccc(C(=O)N[C@H]2C[C@H]3CC[C@@H](C2)N3c2ccc(C(=O)NCc3ccc(N4CCNCC4)cc3)cn2)c1C` [6-[3-endo-({[2-methyl-3-(methyloxy)phenyl]carbonyl}amino)-8-azabicyclo[3.2.1]oct-8-yl]-N-[(4-piperazin-1-ylphenyl)methyl]pyridine-3-carboxamide] the figure was below 500 nM; with `COc1cccc(C(=O)N[C@H]2C[C@H]3CC[C@@H](C2)N3c2ccc(C(=O)NCc3ccccc3)cn2)c1Br` [6-[3-endo-({[2-bromo-3-(methyloxy)phenyl]carbonyl}amino)-8-azabicyclo[3.2.1]oct-8-yl]-N-(phenylmethyl)pyridine-3-carboxamide], 1000 to 2000 nM. For `CC(C)C(=O)c1ccc(N2[C@@H]3CC[C@H]2C[C@@H](NC(=O)c2ccc(C(N)=O)c(NCC4CC4)c2)C3)nc1`, the IC50 lay within 1000 to 2000 nM. Under `CCN(CC)CCOc1ccc([C@H](C)NC(=O)c2ccc(N3C4CCC3CC(NC(=O)c3cccc(OC)c3C)C4)nc2)c(F)c1` (stereo partly drawn) [N-[(1S)-1-(4-{[2-(diethylamino)ethyl]oxy}-2-fluorophenyl)ethyl]-6-[3-endo-({[2-methyl-3-(methyloxy)phenyl]carbonyl}amino)-8-azabicyclo[3.2.1]oct-8-yl]pyridine-3-carboxamide] stands below 500 nM.

In the case of `CC[C@@H](C)Nc1cc(C(=O)NC2CC3CCC(C2)N3c2ccc(C(=O)C3CC3)cn2)c(OC)cc1C(N)=O` (stereo partly drawn) [N-{8-[5-(cyclopropylcarbonyl)pyridin-2-yl]-8-azabicyclo[3.2.1]oct-3-endo-yl}-2-(methyloxy)-5-{[(1R)-1-methylpropyl]amino}benzene-1,4-dicarboxamide], the IC50 is below 500 nM. Under `Cc1cc(C(N)=O)c(NC(C)(C)C)cc1C(=O)N[C@H]1C[C@H]2CC[C@@H](C1)N2c1ccc(C(=O)C2CC2)cn1` [N-{8-[5-(cyclopropylcarbonyl)pyridin-2-yl]-8-azabicyclo[3.2.1]oct-3-endo-yl}-5-[(1,1-dimethylethyl)amino]-2-methylbenzene-1,4-dicarboxamide] stands below 500 nM. Under `CCC(CC)Nc1cc(C(=O)N[C@H]2C[C@H]3CC[C@@H](C2)N3c2ccc(C(=O)C3CC3)cn2)c(Cl)cc1C(N)=O` [2-chloro-N-{8-[5-(cyclopropylcarbonyl)pyridin-2-yl]-8-azabicyclo[3.2.1]oct-3-endo-yl}-5-[(1-ethylpropyl)amino]benzene-1,4-dicarboxamide] stands below 500 nM; under `Cc1cc(CO)ccc1C(=O)N[C@H]1C[C@H]2CC[C@@H](C1)N2c1ccc(C(=O)NCc2cccnc2)cn1` [6-[3-endo-({[4-(hydroxymethyl)-2-methylphenyl]carbonyl}amino)-8-azabicyclo[3.2.1]oct-8-yl]-N-(pyridin-3-ylmethyl)pyridine-3-carboxamide], below 500 nM. With `COc1cccc(C(=O)N[C@H]2C[C@H]3CC[C@@H](C2)N3c2ccc(C(=O)NCC3CC3)cn2)c1C` [N-(cyclopropylmethyl)-6-[3-endo-({[2-methyl-3-(methyloxy)phenyl]carbonyl}amino)-8-azabicyclo[3.2.1]oct-8-yl]pyridine-3-carboxamide] the figure was 500 to 999 nM; with `CCC(CC)Nc1cc(C(=O)NC2CC3CCC(C2)N3c2ccc(C(=O)N[C@H]3CCN(C(C)C)C3)cn2)ccc1C(N)=O` (stereo partly drawn) [2-[(1-ethylpropyl)amino]-N4-{8-[5-({[(3S)-1-(1-methylethyl)pyrrolidin-3-yl]amino}carbonyl)pyridin-2-yl]-8-azabicyclo[3.2.1]oct-3-endo-yl}benzene-1,4-dicarboxamide], below 500 nM; with `CC(=O)c1ccc(N2[C@@H]3CC[C@H]2C[C@@H](NC(=O)c2ccc(C(N)=O)c(NCC(C)(C)C)c2)C3)nc1` [N4-[8-(5-acetylpyridin-2-y)-8-azabicyclo[3.2.1]oct-3-endo-yl]-2-[(2,2-dimethylpropyl)amino]benzene-1,4-dicarboxamide], below 500 nM. Compound `CC(=O)c1ccc(N2[C@@H]3CC[C@H]2C[C@@H](NC(=O)c2ccc(C(N)=O)c(NC4CCOC4)c2)C3)nc1` (stereo partly drawn) [N4-[8-(5-acetylpyridin-2-yl)-8-azabicyclo[3.2.1]oct-3-endo-yl]-2-(tetrahydrofuran-3-ylamino)benzene-1,4-dicarboxamide] came in with an IC50 below 500 nM. Under `CC(=O)c1ccc(N2[C@@H]3CC[C@H]2C[C@@H](NC(=O)c2ccc(C(N)=O)c(Br)c2)C3)nc1` [N4-[8-(5-acetylpyridin-2-yl)-8-azabicyclo[3.2.1]oct-3-endo-yl]-2-bromobenzene-1,4-dicarboxamide] stands below 500 nM; under `COc1cccc(C(=O)N[C@H]2C[C@H]3CC[C@@H](C2)N3c2ccc(C(=O)NN)cn2)c1C` [N-{8-[5-(hydrazinocarbonyl)pyridin-2-yl]-8-azabicyclo[3.2.1]oct-3-endo-yl}-2-methyl-3-(methyloxy)benzamide], 2000 to 10000 nM; under `O=C(NCc1ccccc1)c1ccc(N2[C@@H]3CC[C@H]2C[C@@H](NC(=O)c2ccc(CO)cc2)C3)nc1` [6-[3-endo-({[4-(hydroxymethyl)phenyl]carbonyl}amino)-8-azabicyclo[3.2.1]oct-8-yl]-N-(phenylmethyl)pyridine-3-carboxamide], below 500 nM.

For the compound `Cc1cc(C(N)=O)c(NCC2CC2)cc1C(=O)N[C@H]1C[C@H]2CC[C@@H](C1)N2c1ccc(C(=O)C2CC2)cn1` [N-{8-[5-(cyclopropylcarbonyl)pyridin-2-yl]-8-azabicyclo[3.2.1]oct-3-endo-yl)-5-[(cyclopropylmethyl)amino]-2-methylbenzene-1,4-dicarboxamide], the IC50 is below 500 nM.

In turn, `COc1cccc(C(=O)NC2CC3CCC(C2)N3c2ccc(C(=O)N[C@H](C)c3ccccc3)cn2)c1C` (stereo partly drawn) [6-[3-endo-({[2-methyl-3-(methyloxy)phenyl]carbonyl}amino)-8-azabicyclo[3.2.1]oct-8-yl]-N-[(1R)-1-phenylethyl]pyridine-3-carboxamide] had an IC50 of 2000 to 10000 nM. Under `COc1cccc(C(=O)NC2CC3CCC(C2)N3c2ccc(C(=O)NCC(O)CO)cn2)c1C` (stereo not drawn) [N-(2,3-dihydroxypropyl)-6-[3-endo-({[2-methyl-3-(methyloxy)phenyl]carbonyl}amino)-8-azabicyclo[3.2.1]oct-8-yl]pyridine-3-carboxamide] stands 1000 to 2000 nM; under `COc1ccc(Nc2cc(C(=O)N[C@H]3C[C@H]4CC[C@@H](C3)N4c3ccc(C(=O)NC4CCCC4)cn3)ccc2C(N)=O)cc1OCCN(C)C`, below 500 nM.

Regarding `COc1cccc(C(=O)N[C@H]2C[C@H]3CC[C@@H](C2)N3c2ccc(C(=O)Nc3cccc(Cl)c3)cn2)c1C` [N-(3-chlorophenyl)-6-[3-endo-({[2-methyl-3-(methyloxy)phenyl]carbonyl)amino)-8-azabicyclo[3.2.1]oct-8-yl]pyridine-3-carboxamide], the IC50 lay within 2000 to 10000 nM. With `CC(=O)c1ccc(N2C3CCC2CC(NC(=O)c2ccc(C(N)=O)c(NCCN)c2)C3)nc1` (stereo not drawn) [N4-[8-(5-acetylpyridin-2-yl)-8-azabicyclo[3.2.1]oct-3-endo-yl]-2-[(2-aminoethyl)amino]benzene-1,4-dicarboxamide] the figure was below 500 nM. `COc1c(C(N)=O)ccc(C(=O)NC2CC3CCC(C2)N3c2ccc(C(=O)N[C@@H](C)c3ccc(N4CCN(C)CC4)cc3)cn2)c1C` (stereo partly drawn) [2-methyl-3-(methyloxy)-N-(8-{5-[({(1S)-1-[4-(4-methylpiperazin-1-yl)phenyl]ethyl}amino)carbonyl]pyridin-2-yl}-8-azabicyclo[3.2.1]oct-3-endo-yl)benzene-1,4-dicarboxamide] yielded an IC50 below 500 nM. Under `COc1ccc([C@H](NC(=O)c2ccc(N3C4CCC3CC(NC(=O)c3cccc(OC)c3C)C4)nc2)C(N)=O)cc1` (stereo partly drawn) [N-{(1S)-2-amino-1-[4-(methyloxy)phenyl]-2-oxoethyl}-6-[3-endo-({[2-methyl-3-(methyloxy)phenyl]carbonyl}amino)-8-azabicyclo[3.2.1]oct-8-yl]pyridine-3-carboxamide] stands 500 to 999 nM; under `COC(=O)[C@@H](NC(=O)c1ccc(N2C3CCC2CC(NC(=O)c2cccc(OC)c2C)C3)nc1)c1ccc(OC)cc1` (stereo partly drawn), 1000 to 2000 nM.

The compound `Cc1cc(C(N)=O)c(NC(C)C2(C)CC2)cc1C(=O)N[C@H]1C[C@H]2CC[C@@H](C1)N2c1ccc(C(=O)C2CC2)cn1` (stereo partly drawn) [N-{8-[5-(cyclopropylcarbonyl)pyridin-2-yl]-8-azabicyclo[3.2.1]oct-3-endo-yl}-2-methyl-5-{[1-(1-methylcyclopropyl)ethyl]amino}benzene-1,4-dicarboxamide] showed an IC50 below 500 nM. On to `COc1cc(C(=O)NC2CC3CCC(C2)N3c2ccc(C(=O)N[C@@H](C)c3ccc(N4CCN(C)CC4)cc3)cn2)ccc1C(N)=O` (stereo partly drawn) [2-(methyloxy)-N4-(8-{5-[({(1S)-1-[4-(4-methylpiperazin-1-yl)phenyl]ethyl}amino)carbonyl]pyridin-2-yl}-8-azabicyclo[3.2.1]oct-3-endo-yl)benzene-1,4-dicarboxamide], for which the IC50 was below 500 nM.

The values are drawn from patent publication US8012956B2, “Tropane compounds” (Exelixis, Inc., priority 2007, dated 2011).
